In patent US4082735A, “Novel immunological adjuvant compounds and methods of preparation thereof” (Syntex (U.S.A.) Inc., priority 1976, dated 1978):

How the values were obtained:
guinea pigs [1] = experiment: Delayed hypersensitivity to arsanilic tyrosine, skin test after immunisation with antigen mixture plus test compound in FIA; assay type: in vivo; details: relative to FIA = 1; dose 50 μg per guinea pig, subcutaneous in FIA emulsion; skin test day 14, read at 24 hours
Protocol: (§1) The antigen mixture used consists of 20 μg. of arsanilic tyrosine and 100 μg. of protein [either bovine serum albumin (BSA) or ovalbumin]. The antigen mixture and the compounds to be tested, at the dose levels per guinea pig shown in the Table below, are dissolved in saline and emulsified with an equal volume of Freund's Incomplete Adjuvant (FIA). Groups of ten guinea pigs are used for each test compound and each guinea pig is injected with 0.1 ml. of the above emulsion, subcutaneously, in the nuchal region. Control groups are given the antigen mixture alone emulsified with FIA.
After 14 days, all animals are skin tested using 25 μg arsanilic tyrosine conjugated to either BSA or ovalbumin (BSA is used in this test when ovalbumin is present in the antigen mixture and vice versa) which is given in 0.1 ml saline intradermally in the flanks of the animals. […] Thus, the procedure is as follows: skin tests with a high degree of infiltration are scored as ++ and assigned the number 3; those with a lesser degree are scored as + and given the number 2, whereas skin reactions with no infiltration are scored as zero and assigned the number 1. […]

guinea pigs [2] = experiment: Antibody titre (antibovine serum albumin or antiovalbumin antibodies) by passive hemagglutination or Farr radioimmune assay; assay type: in vivo; details: relative to FIA = 1; dose 50 μg per guinea pig, subcutaneous in FIA emulsion; sera day 42
Protocol: as §1
On day 42 all animals are bled by cardiac puncture and the sera assayed for antibovine serum albumin or antiovalbumin antibodies by the passive hemagglutination technique or by radiommune assay using the Farr techbique (P. Minden and R.S. Farr in "Handbook of Experimental Immunology", edited by D.M. Weir, Chapter 15, Volume 1, Blackwell Scientific Publications, Oxford) using 125 iodine labeled bovine serum albumin. Average potencies of these assays are presented in Column 2 of the Table below relative to FIA having the value of one.

cats = experiment: Side effects in cats after inoculation; assay type: in vivo, cat; details: 1500 μg per kilogram
Description: B. Seven cats were divided into groups and inoculated with the amounts of compounds (per kilogram of body weight) as shown in the following Table: […]

dogs = experiment: Side effects in dogs after inoculation; assay type: in vivo, dog; details: 4 dogs
Description: A. 48 Dogs were divided into groups and inoculated with the amounts of compound (per kilogram of body weight) as shown in the following Table: […]

Row | Compound | Average Potency, Delayed Hypersensitivity to Arsanilic Tyrosine (guinea pigs [1]) | Average Potency, Antibody Titre (guinea pigs [2]) | condition at 24 hours post-inoculation (cats; 3 cats) | food intake (cats; 3 cats) | general condition following inoculation (cats; 3 cats) | diarrhea (cats; 3 cats, 2-5 hours post-inoculation) | vomiting, number of times (cats; 3 cats, over a period of 2-5 hours post-inoculation) | rectal temperature, peak (cats; seven hours post-inoculation) [° F] | dogs showing severe depression, excessive salivation and vomiting (dogs; 240 μg per kilogram of body weight) | dogs showing severe depression, excessive salivation and vomiting (dogs; 600 μg per kilogram of body weight) | dogs showing severe depression, excessive salivation and vomiting (dogs; 1500 μg per kilogram of body weight)
1 | 2-acetamido-2-deoxy-D-glucos-3-O-yl-acetyl-L-prolyl-D-isoglutamine | 5.4 | 8.0 | – | – | – | – | – | – | – | – | –
2 | CC(=O)N[C@H]1C(O)O[C@H](CO)[C@@H](O)[C@@H]1OC(C)C(=O)N[C@H](C)C(=O)N[C@H](CCC(=O)O)C(N)=O (stereo partly drawn) [2-(2-acetamido-2-deoxy-D-glucos-3-0-yl)-D-propionyl-L-alanyl-D-isoglutamine] | 3.3 | 3.7 | all animals had returned to normal | Food was refused | became depressed and unkempt | All animals had diarrhea | 4-6 times | 104 | two of the dogs | All of the dogs | All of the dogs
